Square brackets hold non-standard residues; d marks the D form. Peptide text beside a SMILES is read from it. ξ: configuration not given here. ξOrn = NCCCC(N)C(=O)O
How the values were obtained:
[1] = target: T1, Neuropeptide Y receptor type 4 (Homo sapiens, UniProt P50391); test: Displacement of [3H]UR-KK200 from human Y4 receptor expressed in CHO cells co-expressing Gqi5-mtAEQ measured after 90 mins by scintillation counting analysis; type: cell-based
[2] = target: T1, Neuropeptide Y receptor type 4; test: Antagonist activity at human Y4R expressed in HEK293T cells co-expressing ARRB1 assessed as inhibition of hPP-induced beta-arrestin1 recruitment preincubated for 20 mins followed by hPP addition and measured for 40 mins by D-luciferin based luminescence assay; type: cell-based; conditions: HEK-293T
[3] = target: T1, Neuropeptide Y receptor type 4; test: Antagonist activity at human Y4R expressed in HEK293T cells co-expressing ARRB2 assessed as inhibition of hPP-induced beta-arrestin2 recruitment preincubated for 20 mins followed by hPP addition and measured for 40 mins by D-luciferin based luminescence assay; type: cell-based; conditions: HEK-293T
[4] = target: T1, Neuropeptide Y receptor type 4; test: (§1) Antagonist activity at human Y4 receptor expressed in CHO cells co-expressing Gqi5-mtAEQ assessed as inhibition of hPP-induced intracellular calcium mobilization preincubated for 15 mins followed by hPP addition and measured for 43 secs in presence of coelenterazine by aequorin-reporter gene based luminescence assay; type: functional, cell-based
[5] = target: T2, Neuropeptide Y receptor type 1 (Homo sapiens, UniProt P25929); test: Displacement of [3H]UR-MK299 from Y1 receptor in human SK-N-MC cells; type: cell-based
T2 sequence (P25929 whole entry): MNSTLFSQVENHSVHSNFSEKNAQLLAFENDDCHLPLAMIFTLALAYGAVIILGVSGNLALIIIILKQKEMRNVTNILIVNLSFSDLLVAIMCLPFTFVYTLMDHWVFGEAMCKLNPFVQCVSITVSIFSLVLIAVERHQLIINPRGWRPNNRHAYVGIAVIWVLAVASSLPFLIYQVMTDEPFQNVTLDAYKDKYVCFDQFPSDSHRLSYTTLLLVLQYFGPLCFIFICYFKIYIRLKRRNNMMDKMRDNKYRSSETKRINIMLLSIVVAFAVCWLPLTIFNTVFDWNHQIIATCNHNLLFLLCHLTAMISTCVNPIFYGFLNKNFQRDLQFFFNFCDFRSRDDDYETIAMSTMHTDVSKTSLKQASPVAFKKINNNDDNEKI

[6] = target: T3, Neuropeptide Y receptor type 2 (Homo sapiens, UniProt P49146); test: Displacement of [3H]propionyl-pNPY from human Y2 receptor expressed in CHO cells measured after 2 hrs by microbeta liquid scintillation counting analysis; type: cell-based
T3 sequence (P49146 whole entry): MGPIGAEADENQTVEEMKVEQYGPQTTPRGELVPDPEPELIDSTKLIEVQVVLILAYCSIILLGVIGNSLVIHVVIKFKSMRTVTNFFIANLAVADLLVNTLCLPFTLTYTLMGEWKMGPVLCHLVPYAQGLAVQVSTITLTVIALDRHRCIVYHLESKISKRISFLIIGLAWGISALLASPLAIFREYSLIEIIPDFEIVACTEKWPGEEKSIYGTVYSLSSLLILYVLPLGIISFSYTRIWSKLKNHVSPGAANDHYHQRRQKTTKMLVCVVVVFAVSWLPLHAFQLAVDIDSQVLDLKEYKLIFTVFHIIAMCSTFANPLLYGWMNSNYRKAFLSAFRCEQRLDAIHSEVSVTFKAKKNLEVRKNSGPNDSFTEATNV

[7] = target: T4, Neuropeptide Y receptor type 5 (Homo sapiens, UniProt Q15761); test: Displacement of [3H]propionyl-pNPY from human Y5 receptor expressed in human HEC1B cells; type: cell-based
T4 sequence (Q15761 whole entry): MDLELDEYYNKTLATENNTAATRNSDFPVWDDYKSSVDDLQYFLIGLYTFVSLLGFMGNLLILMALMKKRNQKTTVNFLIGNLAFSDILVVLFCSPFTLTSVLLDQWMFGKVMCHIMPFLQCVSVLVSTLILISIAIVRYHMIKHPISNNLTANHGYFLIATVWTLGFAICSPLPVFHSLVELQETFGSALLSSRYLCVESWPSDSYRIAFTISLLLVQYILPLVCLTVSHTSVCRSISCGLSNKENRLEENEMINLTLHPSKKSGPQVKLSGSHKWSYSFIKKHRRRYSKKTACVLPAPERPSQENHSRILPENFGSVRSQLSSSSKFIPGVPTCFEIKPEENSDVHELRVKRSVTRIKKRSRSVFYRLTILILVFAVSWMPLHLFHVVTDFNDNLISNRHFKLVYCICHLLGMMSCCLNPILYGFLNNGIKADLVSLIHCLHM

Homo sapiens [8] = species on record: Homo sapiens; test: Selectivity ratio of Ki for displacement of [3H]UR-MK299 from Y1 receptor in human SK-N-MC cells to Ki for displacement of [3H]UR-KK200 from human Y4 receptor expressed in CHO cells co-expressing Gqi5-mtAEQ; type: cell-based
Homo sapiens [9] = species on record: Homo sapiens; test: Selectivity ratio of Ki for displacement of [3H]propionyl-pNPY from human Y2 receptor expressed in CHO cells to Ki for displacement of [3H]UR-KK200 from human Y4 receptor expressed in CHO cells co-expressing Gqi5-mtAEQ; type: cell-based
Homo sapiens [10] = species on record: Homo sapiens; test: Selectivity ratio of Ki for displacement of [3H]propionyl-pNPY from human Y5 receptor expressed in human HEC1B cells to Ki for displacement of [3H]UR-KK200 from human Y4 receptor expressed in CHO cells co-expressing Gqi5-mtAEQ; type: cell-based
[11] = target: T1, Neuropeptide Y receptor type 4; test: (§2) Antagonist activity at human Y4R expressed in HEK293T cells co-expressing ARRB1 assessed as inhibition of hPP-induced beta-arrestin1 recruitment at 10 uM preincubated for 20 mins followed by hPP addition and measured for 40 mins by D-luciferin based luminescence assay; type: cell-based; conditions: HEK-293T
[12] = target: T1, Neuropeptide Y receptor type 4; test: as §1, with “mobilization at 10 uM” for “mobilization”; type: functional, cell-based
[13] = target: T1, Neuropeptide Y receptor type 4; test: as §2, with “recruitment by measuring rightward shifts of hPP concentration-response curves” for “recruitment”, “assay relative to hPP” for “assay”; type: cell-based; conditions: HEK-293T
[14] = target: T1, Neuropeptide Y receptor type 4; test: Antagonist activity at human Y4 receptor expressed in CHO cells co-expressing Gqi5-mtAEQ assessed as inhibition of hPP-induced intracellular calcium mobilization by measuring rightward shifts of hPP concentration-response curves at 10 uM preincubated for 15 mins followed by hPP addition and …; type: functional, cell-based
[15] = target: T1, Neuropeptide Y receptor type 4; test: Agonist activity at human Y4R expressed in HEK293T cells co-expressing ARRB1 assessed as induction of beta-arrestin1 recruitment measured for 40 mins by D-luciferin based luminescence assay; type: cell-based, HEK-293T; conditions: read-out: EC50
[16] = target: T1, Neuropeptide Y receptor type 4; test: Agonist activity at human Y4R expressed in HEK293T cells co-expressing ARRB2 assessed as induction of beta-arrestin2 recruitment measured for 40 mins by D-luciferin based luminescence assay; type: cell-based, HEK-293T
[17] = target: T1, Neuropeptide Y receptor type 4; test: Agonist activity at human Y4 receptor expressed in CHO cells co-expressing Gqi5-mtAEQ assessed as intracellular calcium mobilization measured for 43 secs in presence of coelenterazine by aequorin-reporter gene based luminescence assay; type: functional, cell-based; conditions: read-out: EC50

T1 sequence (P50391 whole entry): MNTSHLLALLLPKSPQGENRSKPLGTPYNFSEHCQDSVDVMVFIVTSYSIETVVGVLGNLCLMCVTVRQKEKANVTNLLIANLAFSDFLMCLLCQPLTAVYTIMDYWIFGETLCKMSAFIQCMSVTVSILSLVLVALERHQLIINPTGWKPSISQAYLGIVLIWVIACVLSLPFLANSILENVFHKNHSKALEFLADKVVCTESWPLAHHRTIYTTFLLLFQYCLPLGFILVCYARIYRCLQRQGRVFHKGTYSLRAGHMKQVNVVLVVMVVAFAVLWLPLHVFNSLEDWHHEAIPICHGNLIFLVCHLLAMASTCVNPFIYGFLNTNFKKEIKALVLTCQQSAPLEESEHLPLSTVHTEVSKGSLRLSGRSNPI

| Molecule | Ki ([1]; read-out: Ki) | Ki ([1]; read-out: pKi (converted)) | pKb [2] | pKb [3] | pKb [4] | Ki ([5]; read-out: Ki) | Ki ([5]; read-out: pKi (converted)) | Ki ([6]; read-out: Ki) | Ki ([6]; read-out: pKi (converted)) | Ki ([7]; read-out: Ki) | Ki ([7]; read-out: pKi (converted)) | Ratio Ki (Homo sapiens [8]) | Ratio Ki (Homo sapiens [9]) | Ratio Ki (Homo sapiens [10]) | Ki ([6]; cho, read-out: Ki) | EC50 [15] | EC50 ([16]; read-out: EC50) | EC50 [17] | other results |
| --- | --- | --- | --- | --- | --- | --- | --- | --- | --- | --- | --- | --- | --- | --- | --- | --- | --- | --- | --- |
| Ac-RGYRWRW-NH2 | 250 nM | 240 nM | 6.1 | 5.8 | 6.46 | – | – | – | – | – | – | – | – | – | – | – | – | – | – |
| H-RYRWRY-NH2 | 28 nM | 26.9 nM | 7.14 | 6.87 | 7.32 | > 3 µM | > 3.16 µM | > 3 µM | > 3.16 µM | > 10 µM | > 10 µM | > 110 | > 110 | > 360 | – | – | – | – | pKb [11]: 6.63; pKb [12]: 7.05; fold change (FC) [13]: 2; fold change (FC) [14]: 2 |
| Ac-RYRWRY-NH2 | 97 nM | 89.1 nM | 7.02 | 6.85 | 7.22 | – | – | – | – | – | – | – | – | – | – | – | – | – | – |
| H-WRLRY-NH2 | 1.7 nM | 1.62 nM | – | – | – | – | > 1 µM | – | > 10 µM | > 1 µM | > 1 µM | > 590 | > 5900 | > 590 | > 10 µM | 160 nM | 140 nM | 250 nM | Ki ([5]; sk-n-mc, read-out: Ki): > 1 µM; EC50 ([16]; read-out: pEC50 (converted)): 148 nM |
| CC(C)C[C@H](NC(=O)[C@@H](N)CCCNC(=N)N)C(=O)N[C@@H](CCCNC(=N)N)C(=O)N[C@@H](Cc1ccc(O)cc1)C(N)=O | 3.4 nM | – | – | – | – | – | > 10 µM | – | > 10 µM | > 10 µM | > 10 µM | > 2900 | > 2900 | > 2900 | > 10 µM | 280 nM | 170 nM | 440 nM | Ki ([5]; sk-n-mc, read-out: Ki): > 10 µM |
| CC(C)C[C@H](NC(=O)[C@H](CCCNC(=N)N)NC(=O)[C@H](Cc1ccc(O)cc1)NC(=O)[C@@H](N)CCCNC(=N)N)C(=O)N[C@@H](CCCNC(=N)N)C(=O)N[C@@H](Cc1ccc(O)cc1)C(N)=O | 2 nM | – | – | – | – | > 3 µM | > 3.16 µM | – | > 10 µM | > 3 µM | > 3.16 µM | > 1500 | > 5000 | > 1500 | > 10 µM | 51 nM | 38 nM | 100 nM | – |
| Ac-RRLRY-NH2 | 17 nM | 14.1 nM | – | – | – | > 3 µM | > 3.16 µM | > 3 µM | > 3.16 µM | > 10 µM | > 10 µM | > 180 | > 180 | > 590 | – | 600 nM | 510 nM | 2500 nM | – |
| CC(=O)N[C@@H](CCCNC(=N)N)C(=O)NC(CCCN)C(=O)N[C@@H](Cc1ccc(O)cc1)C(=O)N[C@@H](CCCNC(=N)N)C(=O)N[C@@H](Cc1c[nH]c2ccccc12)C(=O)N[C@@H](CCCNC(=N)N)C(=O)N[C@@H](Cc1ccc(O)cc1)C(N)=O (stereo not given in full) (Ac-R[ξOrn]YRWRY-NH2) | 160 nM | – | 6.22 | 5.87 | 6.91 | – | – | – | – | – | – | – | – | – | – | – | – | – | – |
| Ac-RGWRLRY-NH2 | 2.8 nM | – | – | – | – | – | > 1 µM | > 3 µM | > 3.16 µM | > 10 µM | > 10 µM | > 360 | > 1070 | > 3600 | – | 160 nM | 51 nM | 110 nM | Ki ([5]; sk-n-mc, read-out: Ki): > 1 µM |
| Ac-RGYRWRY-NH2 | 29 nM | – | 6.96 | 7.01 | 7.57 | > 3 µM | > 3.16 µM | – | > 10 µM | > 3 µM | > 3.16 µM | > 100 | > 340 | > 100 | > 10 µM | – | – | – | – |
| CC(C)C[C@H](NC(=O)[C@H](CCCNC(=N)N)NC(=O)[C@H](Cc1ccc(O)cc1)NC(=O)[C@H](CCCNC(=N)N)NC(=O)CCC(=O)O)C(=O)N[C@@H](CCCNC(=N)N)C(=O)N[C@@H](Cc1ccc(O)cc1)C(N)=O | 4 nM | – | – | – | – | > 0.3 µM | > 0.316 µM | > 3 µM | > 3.16 µM | > 10 µM | > 10 µM | > 75 | > 750 | > 2500 | – | 460 nM | 430 nM | 620 nM | – |
| Ac-RGRLRY-NH2 | 7.9 nM | 7.59 nM | – | – | – | > 3 µM | > 3.16 µM | – | > 1 µM | > 3 µM | > 3.16 µM | > 380 | > 130 | > 380 | > 1 µM | 180 nM | 250 nM | 1200 nM | – |

Source: ChEMBL document CHEMBL4619778, “Oligopeptides as Neuropeptide Y Y4 Receptor Ligands: Identification of a High-Affinity Tetrapeptide Agonist and a Hexapeptide Antagonist” (J Med Chem, 2020)
